Assay results as given in patent US20110098326A1, “2-FLUOROTHIAZOLE DERIVATIVES USEFUL AS IMAGING AGENTS; METHODS OF SYNTHESIS, AND METHODS OF USE” (priority 2009, published 2011).
Like-named read-outs stand apart in the source and are kept apart here.

Legend:
[1] = human subjects; cited from earlier work
[2] = monkey; cited from earlier work
[3] = rat; cited from earlier work
mGluR5 receptors = biological target: T1, mGluR5 receptors (Homo sapiens, UniProt P41594); assay: In vitro binding to glutamate receptors ([^3H]MPEP displacement, membranes of transfected cell lines); details: mGluR5, radioligand [^3H]MPEP
T1 construct: expressed in transfected cells; host or cells: transiently or stably transfected cell lines (e.g., HEK293, COS, CHO, NIH3T3)
T1 sequence (P41594 21-1212): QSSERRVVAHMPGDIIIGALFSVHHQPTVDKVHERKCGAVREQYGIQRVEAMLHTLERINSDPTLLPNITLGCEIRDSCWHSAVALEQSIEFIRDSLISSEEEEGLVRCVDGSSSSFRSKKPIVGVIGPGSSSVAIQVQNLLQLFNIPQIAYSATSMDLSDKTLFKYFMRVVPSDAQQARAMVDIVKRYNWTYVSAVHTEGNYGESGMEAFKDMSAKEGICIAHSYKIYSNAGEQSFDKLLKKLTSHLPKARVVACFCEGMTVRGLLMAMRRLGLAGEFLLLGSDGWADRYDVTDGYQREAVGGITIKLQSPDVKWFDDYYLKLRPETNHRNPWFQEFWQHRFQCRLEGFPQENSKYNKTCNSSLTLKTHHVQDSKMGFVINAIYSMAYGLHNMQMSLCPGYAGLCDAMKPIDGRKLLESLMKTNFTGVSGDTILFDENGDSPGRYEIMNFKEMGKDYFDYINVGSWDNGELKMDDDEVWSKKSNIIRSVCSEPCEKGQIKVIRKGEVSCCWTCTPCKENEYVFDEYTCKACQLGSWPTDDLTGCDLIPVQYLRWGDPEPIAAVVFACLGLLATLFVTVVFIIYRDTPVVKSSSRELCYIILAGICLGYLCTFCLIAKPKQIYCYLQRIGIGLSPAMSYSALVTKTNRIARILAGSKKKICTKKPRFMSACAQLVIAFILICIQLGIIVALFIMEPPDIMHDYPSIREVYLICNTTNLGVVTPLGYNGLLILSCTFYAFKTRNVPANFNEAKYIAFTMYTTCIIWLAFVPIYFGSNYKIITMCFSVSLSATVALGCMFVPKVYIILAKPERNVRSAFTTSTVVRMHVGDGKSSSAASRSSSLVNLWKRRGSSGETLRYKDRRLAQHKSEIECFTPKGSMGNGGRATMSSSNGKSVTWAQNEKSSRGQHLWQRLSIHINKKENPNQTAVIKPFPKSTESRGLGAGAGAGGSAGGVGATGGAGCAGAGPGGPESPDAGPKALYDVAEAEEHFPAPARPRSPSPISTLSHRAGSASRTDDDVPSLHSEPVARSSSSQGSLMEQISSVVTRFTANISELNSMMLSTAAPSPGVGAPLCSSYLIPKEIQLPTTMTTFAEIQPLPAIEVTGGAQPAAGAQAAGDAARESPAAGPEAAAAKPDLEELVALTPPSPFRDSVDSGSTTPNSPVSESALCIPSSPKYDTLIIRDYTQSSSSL
Experimental: The assay buffer is Standard Binding Buffer (50 mM Tris-HCl, 10 mM MgCl2, 0.1 mM EDTA, pH 7.4) and the membrane fraction source is transiently or stably transfected cell lines (e.g., HEK293, COS, CHO, NIH3T3)
Aliquots (50 μL) of radioligand are dispensed into the wells of a 96-well plate containing 100 μl of Standard Binding Buffer. Then, duplicate 50-μL aliquots of the test and reference compound dilutions are added.
The 250-4, reactions are incubated at room temperature and shielded from light (to prevent photolysis of light-sensitive ligands) for 1 hour, then harvested by rapid filtration onto Whatman GF/B glass fiber filters pre-soaked with 0.3% polyethyleneimine using a 96-well Brandel harvester. Four rapid 500-μL washes are performed with chilled Standard Binding Buffer to reduce non-specific binding. Filters are placed in 6-mL scintillation tubes and allowed to dry overnight. The next day, 4 mL of EcoScint scintillation cocktail (National Diagnostics) are added to each tube. The tubes are capped, labeled, and counted by liquid scintillation counting. […] The filter mats are dried, then scintillant is melted onto the filters and the radioactivity retained on the filters is counted in a Microbeta scintillation counter.
Raw data (dpm) representing total radioligand binding (i.e., specific+non-specific binding) are plotted as a function of the logarithm of the molar concentration of the competitor (i.e., test or reference compound).
Ki=IC50/(1+[ligand]/KD) (Eqn. 2)
where [ligand] equals the assay radioligand concentration and KD equals the affinity constant of the radioligand for the target receptor.

| Ki (mGluR5 receptors) [nM] | SMILES | also measured |
| --- | --- | --- |
|  | N#Cc1cc(F)cc(C#Cc2csc(C[18F])n2)c1 [[^18F]SP203, 3-fluoro-5-[[2-([^18F]fluoromethyl)thiazol-4-yl]ethynyl]benzonitrile] | defluorination [1]: slower or negligible; defluorination [2]: rapidly defluorinated; defluorination [3]: rapidly defluorinated |
| < 50 | N#Cc1cccc(C#Cc2csc(F)n2)c1 [Compound 13, (5-((2-fluorothiazol-4-yl)ethynyl)benzonitrile)] |  |
| < 50 | COc1cccc(C#Cc2csc(F)n2)c1 [Compound 15] |  |
| < 50 | N#Cc1cc(F)cc(C#Cc2csc(F)n2)c1 [Compound 14, 3-fluoro-5-((2-fluorothiazol-4-yl)ethynyl)benzonitrile] |  |
| < 50 | N#CCc1cccc(C#Cc2csc(F)n2)c1 [Compound 16] |  |
| < 150 | Fc1nc(C#Cc2ccccc2)cs1 [Compound 12, 2-fluoro-4-(phenylethynyl)thiazole] |  |
